Laboratory results as given in ChEMBL document CHEMBL1201862, “PubChem BioAssay data set” (2004).
Active and inactive are the calls of the source.

Experiments:
[1] = THP-1 cell cytotoxicity, dose response, cytotoxicity control for non-replicating M. tuberculosis project (AID 489025); assay type: functional
[2] = inhibitors of intracellular T. cruzi replication, confirmation, NIH3T3 host cells, beta-gal luminescence (AID 2044); assay type: functional, cell-based;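 note: intracellular parasites grown in NIH/3T3 mouse fibroblasts as host cells; luminescent beta-galactosidase reporter signal from transgenic T. cruzi replicating inside host cells; inhibitors lower the luminescence signal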
cells = assay type: functional
[3] = Vero E6 cell cytotoxicity, dose response, cytotoxicity control for non-replicating M. tuberculosis project, secondary assay (AID 492998); assay type: functional, VeroE6; conditions: Vero C1008
Escherichia coli [4] = assay: microbe, parasite or virus in culture
Escherichia coli [5] = assay: microbe, parasite or virus in culture; remark: listed apart in the source
Paired box protein Pax-8 = Paired box protein Pax-8 (Homo sapiens, UniProt Q06710); assay: inhibitors of PAX8-driven TPO luciferase reporter, dose response, RMG-I cells, cherry-pick (AID 687027); assay type: functional, cell-based;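 note: luciferase reporter driven by Pax8 target thyroperoxidase promoter measured by SteadyGlo luminescence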
Sequence of Paired box protein Pax-8 (Q06710 whole entry): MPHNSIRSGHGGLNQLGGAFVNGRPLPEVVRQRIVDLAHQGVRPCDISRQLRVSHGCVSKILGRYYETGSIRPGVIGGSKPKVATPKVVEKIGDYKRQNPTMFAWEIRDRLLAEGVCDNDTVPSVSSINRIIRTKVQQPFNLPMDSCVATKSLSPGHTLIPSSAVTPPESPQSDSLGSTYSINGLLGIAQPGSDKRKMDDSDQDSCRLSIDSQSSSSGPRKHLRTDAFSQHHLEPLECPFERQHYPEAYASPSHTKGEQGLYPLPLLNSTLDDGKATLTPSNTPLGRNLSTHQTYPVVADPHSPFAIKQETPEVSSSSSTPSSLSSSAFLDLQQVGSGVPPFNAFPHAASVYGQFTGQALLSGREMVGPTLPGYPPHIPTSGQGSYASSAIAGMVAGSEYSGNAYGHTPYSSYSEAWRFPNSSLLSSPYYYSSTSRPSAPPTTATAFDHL

[6] = HepG2 cell cytotoxicity, dose response, cytotoxicity control for non-replicating M. tuberculosis project (AID 489018); assay type: functional; conditions: Mycobacterium tuberculosis
[7] = Luminescence-based dose response cell-based high throughput screening assay for cytotoxic compounds using the IEC-6 intestinal epithelial cell line. [Related pubchem assays: 1858 (Summary AID.), 1825 (Counterscreen.), 1907 (Confirmation screen.)]; assay type: functional
[8] = cytotoxicity toward NIH3T3 fibroblasts, dose response, counter-screen, cell-based, ATP luminescence, mouse fibroblasts (AID 2010); assay type: functional;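 note: cells exposed to compound for about 90 hours before reading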
HEK293 [9] = assay: cells; conditions: Homo sapiens
HEK293 [10] = assay: cells; conditions: Homo sapiens; remark: listed apart in the source
Candida albicans [11] = assay: growth inhibition of azole-resistant C. albicans, dose response, CaCi-8 strain, Alamar Blue, dry powder, set 2 (AID 488909); assay type: functional, organism-based
Candida albicans [12] = assay: growth inhibition of resistant C. albicans, dose response, CaCi-8 strain, fluconazole, dry powder, set 4 (AID 488950); assay type: functional, organism-based
HEK293 [13] = assay: cytotoxicity in HEK293T NF-kB-Luc cells, SAR follow-up, cytotoxicity control for NF-kB activator project, cell-based, resazurin fluorescence (AID 493251); assay type: functional; conditions: Homo sapiens
CAAX prenyl protease 2 [14] = target: T1, CAAX prenyl protease 2 (Saccharomyces cerevisiae S288c, UniProt Q03530); assay type: biochemical
T1 sequence (Q03530 whole entry): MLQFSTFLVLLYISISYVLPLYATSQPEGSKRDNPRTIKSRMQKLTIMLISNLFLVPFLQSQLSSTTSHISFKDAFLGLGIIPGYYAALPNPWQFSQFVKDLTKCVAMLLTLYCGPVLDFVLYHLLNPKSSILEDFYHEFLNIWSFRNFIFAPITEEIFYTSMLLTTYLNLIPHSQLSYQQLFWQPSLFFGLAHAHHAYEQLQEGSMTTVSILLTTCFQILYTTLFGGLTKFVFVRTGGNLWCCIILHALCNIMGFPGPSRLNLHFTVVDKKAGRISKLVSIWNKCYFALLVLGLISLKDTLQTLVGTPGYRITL

CAAX prenyl protease 2 [15] = target: CAAX prenyl protease 2 (Homo sapiens, UniProt Q9Y256); assay: human Rce1 protease inhibitors, dose response, biochemical, yeast membranes, quenched-peptide fluorescence, cherry-pick (AID 588849)
Sequence of CAAX prenyl protease 2 (Homo sapiens, UniProt Q9Y256) (Q9Y256 whole entry): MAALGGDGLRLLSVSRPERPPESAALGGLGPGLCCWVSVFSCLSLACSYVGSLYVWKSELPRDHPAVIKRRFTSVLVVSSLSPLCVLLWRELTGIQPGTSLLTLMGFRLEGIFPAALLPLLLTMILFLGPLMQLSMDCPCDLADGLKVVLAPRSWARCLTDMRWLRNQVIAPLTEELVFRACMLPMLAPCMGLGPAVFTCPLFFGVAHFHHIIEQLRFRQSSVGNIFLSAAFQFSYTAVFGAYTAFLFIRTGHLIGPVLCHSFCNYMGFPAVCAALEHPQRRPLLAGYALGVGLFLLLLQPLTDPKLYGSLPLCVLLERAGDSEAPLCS

[16] = target: UDP-galactopyranose mutase (Mycobacterium tuberculosis, UniProt P9WIQ1); assay: Inhibitors of Mycobacterium tuberculosis UDP-galactopyranose mutase (UGM) enzyme Measured in Biochemical System Using Plate Reader - 2105-02_Inhibitor_Dose_CherryPick_Activity. [Related pubchem assays (depositor defined):AID504439]
Sequence of UDP-galactopyranose mutase (P9WIQ1 whole entry): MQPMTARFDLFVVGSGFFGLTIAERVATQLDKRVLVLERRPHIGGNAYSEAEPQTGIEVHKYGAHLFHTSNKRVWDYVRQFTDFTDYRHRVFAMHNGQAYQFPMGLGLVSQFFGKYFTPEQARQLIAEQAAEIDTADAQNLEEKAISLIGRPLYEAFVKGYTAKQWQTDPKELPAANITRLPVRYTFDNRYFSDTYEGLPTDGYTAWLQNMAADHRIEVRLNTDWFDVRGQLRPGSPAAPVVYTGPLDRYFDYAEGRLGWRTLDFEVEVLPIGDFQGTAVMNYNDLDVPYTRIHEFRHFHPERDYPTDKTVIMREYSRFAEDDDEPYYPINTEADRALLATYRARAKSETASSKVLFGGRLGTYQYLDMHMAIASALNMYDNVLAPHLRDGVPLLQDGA

Vero = assay: Vero E6 cell cytotoxicity, dose response, cytotoxicity control (AID 540298); assay type: functional; conditions: Chlorocebus sabaeus
MDCK [17] = assay: MDCK cell cytotoxicity, dose response, cytotoxicity control (AID 540296); assay type: functional; conditions: Canis lupus familiaris
MDCK [18] = assay: antiviral activity against H1N1 influenza, dose response, cell-based, strain KY136 (AID 540257); assay type: functional; conditions: Canis lupus familiaris
Nonstructural protein 1 = Nonstructural protein 1 (Influenza A virus, UniProt Q194T2); assay type: functional, Influenza A virus (A/California/07/2009(H1N1))
Sequence of Nonstructural protein 1 (Q194T2 whole entry, the tested form may be a part): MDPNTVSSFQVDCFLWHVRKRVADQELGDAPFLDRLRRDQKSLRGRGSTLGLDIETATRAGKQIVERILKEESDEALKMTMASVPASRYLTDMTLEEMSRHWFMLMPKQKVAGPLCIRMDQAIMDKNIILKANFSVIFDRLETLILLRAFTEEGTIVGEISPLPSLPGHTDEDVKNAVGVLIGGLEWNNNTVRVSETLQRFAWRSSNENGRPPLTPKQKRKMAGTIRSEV

CHO = assay: cytotoxicity in TLR9-MyD88 CHO cells, dose response, cytotoxicity control for TLR9-MyD88 binding inhibitor project, cell-based, luminescence (AID 588339); assay type: functional, hamster; conditions: Cricetulus griseus;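 note: CHO cells stably coexpressing TLR9 and MyD88 fusions from primary screen; compound exposure lasted 48 hours before viability readout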
Beta Lactamase = Beta Lactamase (Pseudomonas aeruginosa, UniProt Q932Y6); assay: beta-lactamase reporter inhibitor potency, dose response, artefact control for TLR9-MyD88 binding inhibitor project, BLA reporter cells, FRET fluorescence (AID 588341); assay type: cell-based;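 note: cell based assay in CHO-K1 cells stably expressing beta-lactamase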
Sequence of Beta Lactamase (Q932Y6 whole entry): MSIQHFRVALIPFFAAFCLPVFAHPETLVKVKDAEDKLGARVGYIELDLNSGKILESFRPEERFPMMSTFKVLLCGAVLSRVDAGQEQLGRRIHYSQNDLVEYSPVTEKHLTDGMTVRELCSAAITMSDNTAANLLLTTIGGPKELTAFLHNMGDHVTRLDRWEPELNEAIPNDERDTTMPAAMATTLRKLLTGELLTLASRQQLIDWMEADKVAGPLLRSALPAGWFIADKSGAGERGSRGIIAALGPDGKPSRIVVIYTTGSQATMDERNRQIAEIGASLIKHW

## CN1CCc2c(sc(NC(=O)c3ccc([N+](=O)[O-])o3)c2C(N)=O)C1
[1]
  CC50: 1.21 µM (active)
[2]
  EC50: 1.26 µM (active)
cells
  IC50: 17.6 µM (active)
[3]
  CC50: 0.54 µM (active)
Escherichia coli [4]
  AC50: 23.2 µM (active)
Escherichia coli [5]
  AC50: 26.4 µM (active)
Paired box protein Pax-8
  AC50: 1.67 µM (active)
[6]
  CC50: 2.55 µM (active)
[7]
  IC50: 0.879 µM (active)
[8]
  EC50: 3.92 µM (active)

## Cc1cc(C)nc(SC2c3cccc4cccc(c34)C2NS(=O)(=O)c2ccccc2)n1 (stereo unspecified)
HEK293 [9]
  EC50: > 59.6 µM (inactive)
[2]
  EC50: 1.87 µM (active)
HEK293 [10]
  EC50: > 59.6 µM (inactive)
[8]
  EC50: 12.8 µM (active)

## O=C(c1ccc(Cl)cc1)N1CCCN(c2ccnc3cc(Cl)ccc23)CC1
Candida albicans [11]
  AC50: < 0.195 µM (active)
Candida albicans [12]
  AC50: 12.7 µM (active)

## Cc1oc(-c2ccccc2)nc1CSCC(=O)NCc1ccco1
HEK293 [13]
  IC50: > 80 µM (inactive)

## CCc1cc(=O)oc2cc(OCC(=O)N3CCC(C(=O)O)CC3)ccc12
CAAX prenyl protease 2 [14]
  AC50: 31.9 µM (active)
CAAX prenyl protease 2 [15]
  AC50: 14.3 µM (active)

## O=C(COC(=O)c1ccc([N+](=O)[O-])o1)NC1CCCC1
[16]
  AC50: > 500 µM (inactive)

## CCc1ccccc1NC(=O)CSc1nc2nnc(C)c-2c(N)n1-c1cccc(OC)c1
Vero
  CC50: 24.4 µM (active)
MDCK [17]
  CC50: 35.7 µM (active)
MDCK [18]
  IC50: 7.75 µM (active)
Nonstructural protein 1
  IC50: > 100 µM (active)

## Cc1nn(C)c(C)c1N1C(=O)c2cccc3c(Br)ccc(c23)C1=O
CHO
  IC50: 7.3 µM (active)
Beta Lactamase
  IC50: 5.72 µM (active)
